Reference: patent US6479435B1, “Diaryl ethers and processes for their preparation and herbicidal and desiccant compositions containing them” (ISK Americas Incorporated, priority 1997, dated 2002)

Legend:
Type in all cases: in vivo
[1] = tested on: common ragweed (Ambrosia artemisiifolia L., AMBEL); assay: Pre-emerge greenhouse herbicide test, phytotoxicity rating; conditions: 14 days after application, rating scale 0-100
How it was run: (§1)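 Visual 0–100 injury rating (100 = all plants dead) taken 14 days after treatment. Rates of 125–1000 g ai/ha in acetone, 187 l/ha, were sprayed onto soil one day post-sowing; pots were surface-watered to incorporate, then bottom-watered.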

[2] = tested on: sicklepod (Cassia obtusifolia, CASOB); assay: as above; conditions: 14 days after application, rating scale 0-100
How it was run: as §1

[3] = tested on: barnyardgrass (Echinochloa crusgalli, ECHCG); assay: as above; conditions: 14 days after application, rating scale 0-100
How it was run: as §1

[4] = tested on: ivyleaf morningglory (Ipomoea hederacea, IPOHE); assay: as above; conditions: 14 days after application, rating scale 0-100
How it was run: as §1

[5] = tested on: redroot pigweed (Amaranthus retroflexus, AMARE); assay: as above; conditions: 14 days after application, rating scale 0-100
How it was run: as §1

[6] = tested on: large crabgrass (Digitaria sanguinalis, DIGSA); assay: as above; conditions: 14 days after application, rating scale 0-100
How it was run: as §1

[7] = tested on: velvetleaf (Abutilon theophrasti, ABUTH); assay: as above; conditions: 14 days after application, rating scale 0-100
How it was run: as §1

[8] = tested on: lambsquarters (Chenopodium album, CHEAL); assay: as above; conditions: 14 days after application, rating scale 0-100
How it was run: as §1

[9] = tested on: Johnsongrass (Sorghum halepense, SORHA); assay: as above; conditions: 14 days after application, rating scale 0-100
How it was run: as §1

[10] = tested on: green foxtail (Setaria viridis, SETVI); assay: as above; conditions: 14 days after application, rating scale 0-100
How it was run: as §1

[11] = tested on: soybean (Glycine max L., var. Pella 86, SOY); assay: Post-emerge greenhouse test, crop damage rating; conditions: 14 days after application
How it was run: (§2)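 Scores use a 0 (no damage) to 100 (complete kill) scale, taken 14 days after a foliar spray. Acetone solutions with 0.25% v/v non-ionic surfactant were applied by track sprayer at 187 l/ha and 63-1000 g ai/ha to bottom-watered 2-3 leaf plants.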

[12] = tested on: field corn (Zea mays L., var. Dekalb 535, CORN); assay: Pre-emerge greenhouse test, crop damage rating; conditions: 14 days after application, rating scale 0-100
How it was run: as §1

[13] = tested on: upland rice (Oryza sp., var.Tebonnet, RICE); assay: Pre-emerge greenhouse test, crop damage rating; conditions: 14 days after application, rating scale 0-100
How it was run: as §1

[14] = tested on: common ragweed (Ambrosia artemisiifolia L., AMBEL); assay: Post-emerge greenhouse herbicide test, phytotoxicity rating; conditions: 14 days after application
How it was run: as §2

[15] = tested on: sicklepod (Cassia obtusifolia, CASOB); assay: as above; conditions: 14 days after application
How it was run: as §2

[16] = tested on: barnyardgrass (Echinochloa crusgalli, ECHCG); assay: as above; conditions: 14 days after application
How it was run: as §2

[17] = tested on: ivyleaf morningglory (Ipomoea hederacea, IPOHE); assay: as above; conditions: 14 days after application
How it was run: as §2

[18] = tested on: redroot pigweed (Amaranthus retroflexus, AMARE); assay: as above; conditions: 14 days after application
How it was run: as §2

[19] = tested on: large crabgrass (Digitaria sanguinalis, DIGSA); assay: as above; conditions: 14 days after application
How it was run: as §2

[20] = tested on: velvetleaf (Abutilon theophrasti, ABUTH); assay: as above; conditions: 14 days after application
How it was run: as §2

[21] = tested on: lambsquarters (Chenopodium album, CHEAL); assay: as above; conditions: 14 days after application
How it was run: as §2

[22] = tested on: Johnsongrass (Sorghum halepense, SORHA); assay: as above; conditions: 14 days after application
How it was run: as §2

[23] = tested on: green foxtail (Setaria viridis, SETVI); assay: as above; conditions: 14 days after application
How it was run: as §2

[24] = tested on: field corn (Zea mays L., var. Dekalb 535, CORN); assay: Post-emerge greenhouse test, crop damage rating; conditions: 14 days after application
How it was run: as §2

[25] = tested on: upland rice (Oryza sp., var.Tebonnet, RICE); assay: Post-emerge greenhouse test, crop damage rating; conditions: 14 days after application
How it was run: as §2

[26] = tested on: soybean (Glycine max L., var. Pella 86, SOY); assay: Pre-emerge greenhouse test, crop damage rating; conditions: 14 days after application, rating scale 0-100
How it was run: as §1

O=C1C2=CCCCN2C(=O)N1c1cc(Oc2ncccc2C(F)(F)F)c(Cl)cc1F [Compound 4-2] was tested, and the “phytotoxicity rating AMBEL” value ([1]; 500 g ai/ha) was 100, the “phytotoxicity rating CASOB” value ([2]; 500 g ai/ha) was 0 and the “phytotoxicity rating ECHCG” value ([3]; 500 g ai/ha) was 0. For the same compound, the “phytotoxicity rating IPOHE” value ([4]; 500 g ai/ha) was 0, the “phytotoxicity rating AMARE” value ([5]; 500 g ai/ha) was 100 and the “phytotoxicity rating DIGSA” value ([6]; 500 g ai/ha) was 0. For the same compound, the “phytotoxicity rating ABUTH” value ([7]; 500 g ai/ha) was 95, the “phytotoxicity rating CHEAL” value ([8]; 500 g ai/ha) was 100 and the “phytotoxicity rating SORHA” value ([9]; 500 g ai/ha) was 0. The “phytotoxicity rating SETVI” value ([10]; 500 g ai/ha) was 40, the “SOY crop damage rating (0-100)” value ([11]; 500 g al/ha) was 30 and the “crop damage rating CORN” value ([12]; 500 g ai/ha) was 0. The “crop damage rating RICE” value ([13]; 500 g ai/ha) was 0, the “AMBEL phytotoxicity rating (0-100)” value ([14]; 500 g al/ha) was 75 and the “CASOB phytotoxicity rating (0-100)” value ([15]; 500 g al/ha) was 20. The “ECHCG phytotoxicity rating (0-100)” value ([16]; 500 g al/ha) was 0, the “IPOHE phytotoxicity rating (0-100)” value ([17]; 500 g al/ha) was 99 and the “AMARE phytotoxicity rating (0-100)” value ([18]; 500 g al/ha) was 100. For the same compound, the “DIGSA phytotoxicity rating (0-100)” value ([19]; 500 g al/ha) was 0, the “ABUTH phytotoxicity rating (0-100)” value ([20]; 500 g al/ha) was 70 and the “CHEAL phytotoxicity rating (0-100)” value ([21]; 500 g al/ha) was 90. The “SORHA phytotoxicity rating (0-100)” value ([22]; 500 g al/ha) was 0, the “SETVI phytotoxicity rating (0-100)” value ([23]; 500 g al/ha) was 10 and the “CORN crop damage rating (0-100)” value ([24]; 500 g al/ha) was 5. The “RICE crop damage rating (0-100)” value ([25]; 500 g al/ha) was 10 and the “crop damage rating SOY” value ([26]; 500 g ai/ha) was 0.
For N#Cc1cccnc1Oc1cc(-n2nnn(CCCF)c2=O)c(F)cc1Cl [Compound 6-4], the “phytotoxicity rating AMBEL” value ([1]; 125 g ai/ha) was 0, the “phytotoxicity rating AMBEL” value ([1]; 500 g ai/ha) was 40 and the “phytotoxicity rating CASOB” value ([2]; 125 g ai/ha) was 50. For the same compound, the “phytotoxicity rating CASOB” value ([2]; 500 g ai/ha) was 30, the “phytotoxicity rating ECHCG” value ([3]; 125 g ai/ha) was 0 and the “phytotoxicity rating ECHCG” value ([3]; 500 g ai/ha) was 95. For the same compound, the “phytotoxicity rating IPOHE” value ([4]; 125 g ai/ha) was 40, the “phytotoxicity rating IPOHE” value ([4]; 500 g ai/ha) was 100 and the “phytotoxicity rating AMARE” value ([5]; 125 g ai/ha) was 100. For the same compound, the “phytotoxicity rating AMARE” value ([5]; 500 g ai/ha) was 100, the “phytotoxicity rating DIGSA” value ([6]; 125 g ai/ha) was 70 and the “phytotoxicity rating DIGSA” value ([6]; 500 g ai/ha) was 100. For the same compound, the “phytotoxicity rating ABUTH” value ([7]; 125 g ai/ha) was 100, the “phytotoxicity rating ABUTH” value ([7]; 500 g ai/ha) was 100 and the “phytotoxicity rating CHEAL” value ([8]; 125 g ai/ha) was 100. For the same compound, the “phytotoxicity rating CHEAL” value ([8]; 500 g ai/ha) was 100, the “phytotoxicity rating SORHA” value ([9]; 125 g ai/ha) was 20 and the “phytotoxicity rating SORHA” value ([9]; 500 g ai/ha) was 100. The “phytotoxicity rating SETVI” value ([10]; 125 g ai/ha) was 100, the “phytotoxicity rating SETVI” value ([10]; 500 g ai/ha) was 100 and the “SOY crop damage rating (0-100)” value ([11]; 63 g al/ha) was 20. For the same compound, the “SOY crop damage rating (0-100)” value ([11]; 500 g al/ha) was 60, the “crop damage rating CORN” value ([12]; 125 g ai/ha) was 0 and the “crop damage rating CORN” value ([12]; 500 g ai/ha) was 10. For the same compound, the “crop damage rating RICE” value ([13]; 125 g ai/ha) was 15, the “crop damage rating RICE” value ([13]; 500 g ai/ha) was 35 and the “AMBEL phytotoxicity rating (0-100)” value ([14]; 63 g al/ha) was 20. The “AMBEL phytotoxicity rating (0-100)” value ([14]; 500 g al/ha) was 20, the “CASOB phytotoxicity rating (0-100)” value ([15]; 63 g al/ha) was 15 and the “CASOB phytotoxicity rating (0-100)” value ([15]; 500 g al/ha) was 50. For the same compound, the “ECHCG phytotoxicity rating (0-100)” value ([16]; 63 g al/ha) was 0, the “ECHCG phytotoxicity rating (0-100)” value ([16]; 500 g al/ha) was 60 and the “IPOHE phytotoxicity rating (0-100)” value ([17]; 63 g al/ha) was 65. The “IPOHE phytotoxicity rating (0-100)” value ([17]; 500 g al/ha) was 85, the “AMARE phytotoxicity rating (0-100)” value ([18]; 63 g al/ha) was 75 and the “AMARE phytotoxicity rating (0-100)” value ([18]; 500 g al/ha) was 99. For the same compound, the “DIGSA phytotoxicity rating (0-100)” value ([19]; 63 g al/ha) was 0, the “DIGSA phytotoxicity rating (0-100)” value ([19]; 500 g al/ha) was 0 and the “ABUTH phytotoxicity rating (0-100)” value ([20]; 63 g al/ha) was 90. For the same compound, the “ABUTH phytotoxicity rating (0-100)” value ([20]; 500 g al/ha) was 100, the “CHEAL phytotoxicity rating (0-100)” value ([21]; 63 g al/ha) was 85 and the “CHEAL phytotoxicity rating (0-100)” value ([21]; 500 g al/ha) was 100. The “SORHA phytotoxicity rating (0-100)” value ([22]; 63 g al/ha) was 0, the “SORHA phytotoxicity rating (0-100)” value ([22]; 500 g al/ha) was 80 and the “SETVI phytotoxicity rating (0-100)” value ([23]; 63 g al/ha) was 20. For the same compound, the “SETVI phytotoxicity rating (0-100)” value ([23]; 500 g al/ha) was 40, the “CORN crop damage rating (0-100)” value ([24]; 63 g al/ha) was 10 and the “CORN crop damage rating (0-100)” value ([24]; 500 g al/ha) was 20. For the same compound, the “RICE crop damage rating (0-100)” value ([25]; 63 g al/ha) was 20, the “RICE crop damage rating (0-100)” value ([25]; 500 g al/ha) was 35 and the “crop damage rating SOY” value ([26]; 125 g ai/ha) was 0. The “crop damage rating SOY” value ([26]; 500 g ai/ha) was 20.
